How the values were obtained:
MV4-11 cells = experiment: Growth inhibition of MV4-11 cells (CellTiterGlo); format: cell-based; conditions: Homo sapiens, 72 hours, uncertainty +20%
Description: FLT3 specific growth inhibition was measured in the leukemic cell line MV4-11 (ATCC Number: CRL-9591). […] MV4-11 cells cannot grow and survive without active FLT31TD.
To measure proliferation inhibition by test compounds the luciferase based CellTiterGlo reagent (Promega) was used. Cells are plated at 10,000 cells per well in 100ul of in RPMI media containing penn/strep, 10% FBS and lng/ml GM-CSF or 1 ng/ml IL-3 for MV4-11 and Baf3 cells respectively.
Compound dilutions or 0.1% DMSO (vehicle control) are added to cells and the cells are allowed to grow for 72 hours at standard cell growth conditions (37° C., 5% CO2). Total cell growth is quantified as the difference in luminescent counts (relative light units, RLU) of cell number at Day 0 compared to total cell number at Day 3 (72 hours of growth and/or compound treatment). One hundred percent inhibition of growth is defined as an RLU equivalent to the Day 0 reading. Zero percent inhibition is defined as the RLU signal for the DMSO vehicle control at Day 3 of growth. All data points are an average of triplicate samples. […] Inhibition and IC50 data analysis was done with GraphPad Prism using a non-linear regression fit with a multiparamater, sigmoidal dose-response (variable slope) equation.
MV-411 cells expressed the FLT3 internal tandem duplication mutation, and thus were entirely dependent upon FLT3 activity for growth. […] In contrast, the Baf3 cell proliferations is driven by the cytokine IL-3 and these cells are used as a non-specific toxicity control for test compounds.

wild-type FLT3 receptor = molecular target: T1, wild-type FLT3 receptor (Homo sapiens, UniProt P36888); experiment: Cell-Based FLT3 Receptor Elisa (Baf3 FLT3 cells, FLT3 phosphorylation); conditions: Flt ligand stimulated FLT3 phosphorylation, 1 hour compound incubation, uncertainty +20%
T1 construct: host or cells: Baf3 (murine B cell lymphoma line)
T1 sequence (P36888 27-993): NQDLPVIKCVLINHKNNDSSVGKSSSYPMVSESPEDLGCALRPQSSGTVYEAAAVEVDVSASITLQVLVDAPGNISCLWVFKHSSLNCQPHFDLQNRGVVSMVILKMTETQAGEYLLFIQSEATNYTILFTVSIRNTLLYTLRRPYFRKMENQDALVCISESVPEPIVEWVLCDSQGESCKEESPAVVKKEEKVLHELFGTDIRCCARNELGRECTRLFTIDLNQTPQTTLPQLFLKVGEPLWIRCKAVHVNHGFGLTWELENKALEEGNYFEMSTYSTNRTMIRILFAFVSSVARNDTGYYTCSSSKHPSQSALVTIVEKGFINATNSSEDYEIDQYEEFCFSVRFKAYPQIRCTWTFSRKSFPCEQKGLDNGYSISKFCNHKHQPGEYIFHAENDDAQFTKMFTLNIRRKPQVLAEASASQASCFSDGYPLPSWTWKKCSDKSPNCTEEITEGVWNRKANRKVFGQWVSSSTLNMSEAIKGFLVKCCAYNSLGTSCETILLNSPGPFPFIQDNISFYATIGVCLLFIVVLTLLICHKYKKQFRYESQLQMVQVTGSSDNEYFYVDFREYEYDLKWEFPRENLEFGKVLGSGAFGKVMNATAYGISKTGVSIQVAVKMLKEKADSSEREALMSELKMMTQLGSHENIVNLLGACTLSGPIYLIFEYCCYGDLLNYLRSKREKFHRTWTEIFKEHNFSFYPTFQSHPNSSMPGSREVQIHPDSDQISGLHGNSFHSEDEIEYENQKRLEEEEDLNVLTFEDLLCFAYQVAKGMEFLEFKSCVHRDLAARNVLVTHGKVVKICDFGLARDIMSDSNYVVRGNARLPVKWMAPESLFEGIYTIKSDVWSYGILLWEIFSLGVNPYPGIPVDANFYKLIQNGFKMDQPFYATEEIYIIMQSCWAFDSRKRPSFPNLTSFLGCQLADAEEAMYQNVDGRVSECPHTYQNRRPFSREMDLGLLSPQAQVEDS
Description: Cells overexpressing the FLT3 receptor were obtained from Dr. Michael Heinrich (Oregon Health and Sciences University). The Baf3 FLT3 cell lines were created by stable transfection of parental Baf3 cells (a murine B cell lymphoma line dependent on the cytokine IL-3 for growth) with wild-type FLT3. Cells were selected for their ability to grow in the absence of IL-3 and in the presence of FLT3 ligand.
Baf3 cells were maintained in RPMI 1640 with 10%FCS, penn/strep and 10 ng/mL FLT ligand at 37° C., 5% CO2. To measure direct inhibition of the wild-type FLT3 receptor activity and phosphorylation a sandwich ELISA method was developed similar to those developed for other RTKs (3,4). 200ul of Baf3FLT3 cells (1×10^6/ml) were plated in 96 well dishes in RPM11640 with 0.5% serum and 0.01ng/ml IL-3 for 16 hours prior to 1 hour compound or DMSO vehicle incubation. Cells were treated with 100 ng/ml Flt ligand (R&D Systems Cat# 308-FK) for 10 min. at 37° C. Cells were pelleted, washed and lysed in 100ul HNTG buffer (50 mM Hepes, 150 mM NaCl, 10% Glycerol, 1% Triton -X-100, 10 mM NaF, 1 mM EDTA, 1.5 mM MgCl2, 10 mM NaPyrophosphate) supplemented with phosphatase (Sigma Cat# P2850) and protease inhibitors (Sigma Cat #P8340). Lysates were cleared by centrifugation at 1000×g for 5 minutes at 4° C. Cell lysates were transferred to white wall 96 well microtiter (Costar #9018) plates coated with 50ng/well anti-FLT3 antibody (Santa Cruz Cat# sc-480) and blocked with SeaBlock reagent (Pierce Cat#37527). Lysates were incubated at 4° C. for 2 hours. Plates were washed 3× with 200ul/well PBS/0.1% triton-X-100. Plates are then incubated with 1:8000 dilution of HRP-conjugated anti-phosphotyrosine antibody (Clone 4G10, Upstate Biotechnology Cat#16-105) for 1 hour at room temperature. Plates were washed 3× with 200ul/well PBS/0.1% triton-X-100. Signal detection with Super Signal Pico reagent (Pierce Cat#37070) was done according to manufacturer's instruction with a Berthold microplate luminometer. All data points are an average of triplicate samples. […] Inhibition and IC50 data analysis was done with GraphPad Prism using a non-linear regression fit with a multiparamater, sigmoidal dose-response (variable slope) equation.

FLT3 571-993 = molecular target: T2, FLT3 571-993 (Homo sapiens, UniProt P36888); experiment: FLT3 Fluorescence Polarization Kinase Assay; format: biochemical; conditions: 10 nM FLT3 571-993, 150 uM ATP, 30 minutes; uncertainty +10%
T2 construct: 10 nM FLT3 571-993, 20 ug/mL poly Glu4Tyr
T2 sequence (P36888 571-993): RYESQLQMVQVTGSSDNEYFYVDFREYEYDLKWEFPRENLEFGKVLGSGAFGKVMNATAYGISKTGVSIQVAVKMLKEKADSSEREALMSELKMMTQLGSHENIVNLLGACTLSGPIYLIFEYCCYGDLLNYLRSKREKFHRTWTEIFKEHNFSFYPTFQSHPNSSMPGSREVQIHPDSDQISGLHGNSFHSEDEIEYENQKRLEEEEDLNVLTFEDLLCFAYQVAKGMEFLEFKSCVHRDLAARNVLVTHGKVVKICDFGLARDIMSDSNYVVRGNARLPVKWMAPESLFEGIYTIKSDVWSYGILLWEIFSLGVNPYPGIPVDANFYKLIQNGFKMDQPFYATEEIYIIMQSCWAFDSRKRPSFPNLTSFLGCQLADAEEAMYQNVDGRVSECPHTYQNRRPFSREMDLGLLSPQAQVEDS
Description: The FLT3 FP assay utilizes the fluorescein-labeled phosphopeptide and the anti-phosphotyrosine antibody included in the Panvera Phospho-Tyrosine Kinase Kit (Green) supplied by Invitrogen. When FLT3 phosphorylates poly Glu4Tyr, the fluorescein-labeled phosphopeptide is displaced from the anti-phosphotyrosine antibody by the phosphorylated poly Glu4Tyr, thus decreasing the FP value. The FLT3 kinase reaction is incubated at room temperature for 30 minutes under the following conditions: 10 nM FLT3 571-993, 20 ug/mL poly Glu4Tyr, 150 uM ATP, 5mM MgCl2, 1% compound in DMSO. The kinase reaction is stopped with the addition of EDTA. The fluorescein-labeled phosphopeptide and the anti-phosphotyrosine antibody are added and incubated for 30 minutes at room temperature.
All data points are an average of triplicate samples. Inhibition and IC50 data analysis was done with GraphPad Prism using a non-linear regression fit with a multiparamater, sigmoidal dose-response (variable slope) equation.

Compound	IC50 (MV4-11 cells)	IC50 (wild-type FLT3 receptor)	IC50 (FLT3 571-993)
O=C(Nc1ccc(OC2CCC2)nc1)NC1CCN(c2ncnc3ccsc23)C1 (stereo not drawn) [Compound 15, 1-(6-Cyclobutoxy-pyridin-3-yl)-3-(1-thieno [3,2-d]pyrimidin-4-yl-pyrrolidin-3-yl)-urea]	983 nM	1900 nM	
CC(C)c1ccc(NC(=O)OC2CCN(c3ncnc4ccsc34)C2)cc1 (stereo not drawn) [Compound 5, (4-Isopropyl-phenyl)-carbamic acid 1-thieno [3,2-d]pyrimidin-4-yl-pyrrolidin-3-yl ester]	1300 nM	22 nM	64 nM
O=C(Nc1ccc(OC2CCC2)nc1)OC1CCN(c2ncnc3ccsc23)C1 (stereo not drawn) [Compound 25, (6-Cyclobutoxy-pyridin-3-yl)-carbamic acid 1-thieno[3,2-d]pyrimidin-4-yl-pyrrolidin-3-yl ester]	345 nM	1600 nM	
CC(C)c1ccc(NC(=O)NC2CCN(c3ncnc4sccc34)C2)cc1 (stereo not drawn) [Compound 9, 1-(4-Isopropyl-phenyl)-3-(1-thieno [2,3-d]pyrimidin-4-yl-pyrrolidin-3-yl)-urea]	1300 nM	55 nM	41 nM
O=C(Nc1ccc(Oc2ccccc2)cc1)NC1CCN(c2ncnc3ccsc23)C1 (stereo not drawn) [Compound 13, 1-(4-Phenoxy-phenyl)-3-(1-thieno [3,2-d]pyrimidin-4-yl-pyrrolidin-3-yl)-urea]	881 nM	> 5000 nM	
O=C(Nc1ccc(Oc2ccccc2)cc1)OC1CCN(c2ncnc3ccsc23)C1 (stereo not drawn) [Compound 26, (4-Phenoxy-phenyl)-carbamic acid 1-thieno[3,2-d]pyrimidin-4-yl-pyrrolidin-3-yl ester]	953 nM	390 nM	

Second part, the molecule after the results:

IC50 (MV4-11 cells)	IC50 (wild-type FLT3 receptor)	IC50 (FLT3 571-993)	Compound
850 nM	2900 nM		O=C(Nc1ccc(N2CCCC2)cc1)NC1CCN(c2ncnc3ccsc23)C1 (stereo not drawn) [Compound 19, 1-(4-Pyrrolidin-1-yl-phenyl)-3-(1-thieno [3,2-d]pyrimidin-4-yl-pyrrolidin-3-yl)-urea]
757 nM	895 nM		CCN(CC)c1ccc(NC(=O)NC2CCN(c3ncnc4ccsc34)C2)cc1 (stereo not drawn) [Compound 18, 1-(4-Diethylamino-phenyl)-3-(1-thieno [3,2-d]pyrimidin-4-yl-pyrrolidin-3-yl)-urea]
671 nM	108 nM	77 nM	CC(C)c1ccc(NC(=O)NC2CCN(c3ncnc4ccsc34)C2)cc1 (stereo not drawn) [Compound 11, 1-(4-Isopropyl-phenyl)-3-(1-thieno [3,2-d]pyrimidin-4-yl-pyrrolidin-3-yl)-urea]

— US20060281768A1, “THIENOPYRIMIDINE AND THIENOPYRIDINE KINASE MODULATORS” (priority 2005, published 2006)
